US20260001875A1, “AMINOPYRIMIDINYL DERIVATIVES FOR THE TREATMENT OF PARKINSON'S DISEASE” (UNIVERSITY OF DUNDEE, priority 2022, published 2026)
≈ marks a conversion by molar mass, not a printed value. Entries after “also recorded” stand apart in the source; their conditions may differ. Read-outs that look alike come from different tables or passages of the source.

Experiments:
LRRK2 = LRRK2 (Homo sapiens, UniProt Q5S007); assay: LRRK2 degradation in PBMC; assay type: cell-based; set-up: endogenous in cells; host or cells: human peripheral blood mononuclear cells (PBMC)
Experimental: (§1) PBMC cells were separated from human blood following existing protocol (dx.doi.org/10.17504/protocols.io.bnhxmb7n) and pelleted by centrifugation at 1000 g for 2 min. The supernatant was discarded and the PBMC pellet was resuspended in PBS containing 2% FBS for washing. The suspension was centrifuged at 1000 g for 2 min again and the PBMC pellet was resuspended in RPMI-1640 (Gibco) media supplemented with 10% FBS. The cells were then seeded into 6-well plates and treated with testing compounds at indicated concentrations and time period. After treatment, the cells were collected into 2-ml Eppendorf tube and centrifuged at 500 g for 2 min to pellet the cells, the supernatant was discarded, and the pellet was resuspended in 1 ml PBS and centrifuged at 500 g for 2 min again. The PBMC pellet was lysed with 60 μL of lysis buffer containing 50 mM Tris-HCl, pH 7.5, 1% (v/v) Triton X-100, 1 mM EGTA, 1 mM sodium orthovanadate, 50 mM NaF, 0.1% (v/v) 2-mercaptoethanol, 10 mM 2-glycerophosphate, 5 mM sodium pyrophosphate, 0.1 μg/ml mycrocystin-LR (Enzo Life Sciences), 270 mM sucrose, 0.5 mM DIFP (Sigma, Cat #D0879) in addition to Complete EDTA-free protease inhibitor cocktail (Sigma-Aldrich Cat #11836170001). DIFP is highly toxic and must be prepared in a fume hood to a stock solution of 0.5 M in isopropanol. The lysed cells were then centrifuged at 1500 g for 15 min at 0° C. The supernatants were collected for analysis by quantitative immunoblotting. For long term storage, the supernatant was flash frozen and stored at −80° C. Protein concentrations of cell lysates were determined using Pierce™ BCA Protein Assay Kit (ThermoFisher).
(§2) Cell lysates containing a quarter of a volume of 4× NuPAGE LDS sample buffer (NP0007) supplemented with 5% β-mercaptoethanol, were heated at 95° C. for 5 minutes. 15 to 20 μg of samples were loaded onto pre-cast 4-12% Bis-Tris midi 20W or 26W gels (Thermofisher Scientific®, Cat #WG1402BOX or WG1403BOX) and resolved at 130 V for 2 hours with NuPAGE MOPS SDS running buffer (Thermofisher Scientific® Cat #NP0001-02). Proteins were electrophoretically transferred onto a 0.45 μm nitrocellulose membrane (GE Healthcare, Amersham Protran® Supported 0.45 mm NC) at 90 V for 90 min on ice in transfer buffer (48 mM Tris base and 39 mM glycine supplemented with 20% methanol). The transferred membrane was blocked with 5% (w/v) skim milk powder dissolved in tris-buffered saline with tween (TBS-T) (50 mM Tris base, 150 mM sodium chloride (NaCl), 0.1% (v/v) Tween-20) at room temperature for 1 hour. Membranes were washed three times with TBS-T and were incubated in primary antibody overnight at 4° C. Prior to secondary antibody incubation, membranes were washed three times for 15 minutes with TBS-T. The membranes were incubated with secondary antibody for 1 hour at room temperature, protected from light. Thereafter, the membranes were washed with TBS-T three times with a 15-minute incubation for each wash, and protein bands were acquired via near-infrared fluorescent detection using the Odyssey CLx imaging system and quantified using Image Studio software. Graphs were generated using Graphpad Prism version 8 software.
Monoclonal rabbit LRRK2 Ser935 (Cat #UDD2) was purified by MRC PPU Reagents and Services at the University of Dundee and was used at a final concentration of 1 μg/ml. Total LRRK2 (C-terminus) was from Antibodies Inc./Neuromab (Cat #75-253) and was diluted 1:1000. The MJFF monoclonal rabbit Rab10 pThr73, which was characterized previously (Lis et al., Biochem J. 2018 Jan. 2; 475(1):1-22.) was purchased from Abcam Inc. (ab230261) and diluted 1:1000. Mouse monoclonal alpha-tubulin (#3873) was purchased from Cell Signaling Technology and used at 1:1000. The mouse monoclonal anti-Rab10 total antibody was purchased from Nanotools (#0680-100/Rab10-605B11) and was used at a final concentration of 1 μg/ml. Mouse monoclonal Hif-1α was purchased from R&D Systems (Cat #MAB1536) and was diluted 1:1000.

Rab10 pThr73 = assay: Rab10 Thr73 dephosphorylation in PBMC; assay type: cell-based, human; details: for EC50: Homo sapiens, PBMC
Experimental: as §1, §2
Monoclonal rabbit LRRK2 Ser935 (Cat #UDD2) was purified by MRC PPU Reagents and Services at the University of Dundee and was used at a final concentration of 1 μg/ml. Total LRRK2 (C-terminus) was from Antibodies Inc./Neuromab (Cat #75-253) and was diluted 1:1000. […]

[1] = Stability in mouse liver microsome; assay type: in vitro ADME; details: liver microsomes, read-out: T1/2 in mouse liver microsome
[2] = Stability in mouse hepatocytes; assay type: in vitro ADME; details: read-out: T1/2 in mouse hepatocytes
Solubility = assay type: physicochemical
Caco-2 permeability = assay type: in vitro ADME; details: human, Caco-2
Caco-2 mono-cell layer = assay: Caco-2 permeability; assay type: in vitro ADME
LRRK2 pSer935 = assay: LRRK2 Ser935 dephosphorylation in PBMC; assay type: cell-based, human; details: time course at 300 nM
Experimental: PBMC cells were separated from human blood following existing protocol (dx.doi.org/10.17504/protocols.io.bnhxmb7n) and pelleted by centrifugation at 1000 g for 2 min. The supernatant was discarded and the PBMC pellet was resuspended in PBS containing 2% FBS for washing. The suspension was centrifuged at 1000 g for 2 min again and the PBMC pellet was resuspended in RPMI-1640 (Gibco) media supplemented with 10% FBS. The cells were then seeded into 6-well plates and treated with testing compounds at indicated concentrations and time period. After treatment, the cells were collected into 2-ml Eppendorf tube and centrifuged at 500 g for 2 min to pellet the cells, the supernatant was discarded, and the pellet was resuspended in 1 ml PBS and centrifuged at 500 g for 2 min again. […] The supernatants were collected for analysis by quantitative immunoblotting. […] Protein concentrations of cell lysates were determined using Pierce™ BCA Protein Assay Kit (ThermoFisher).
Cell lysates containing a quarter of a volume of 4× NuPAGE LDS sample buffer (NP0007) supplemented with 5% β-mercaptoethanol, were heated at 95° C. for 5 minutes. […] Thereafter, the membranes were washed with TBS-T three times with a 15-minute incubation for each wash, and protein bands were acquired via near-infrared fluorescent detection using the Odyssey CLx imaging system and quantified using Image Studio software. […]

Chain of LRRK2 (Q5S007 whole entry): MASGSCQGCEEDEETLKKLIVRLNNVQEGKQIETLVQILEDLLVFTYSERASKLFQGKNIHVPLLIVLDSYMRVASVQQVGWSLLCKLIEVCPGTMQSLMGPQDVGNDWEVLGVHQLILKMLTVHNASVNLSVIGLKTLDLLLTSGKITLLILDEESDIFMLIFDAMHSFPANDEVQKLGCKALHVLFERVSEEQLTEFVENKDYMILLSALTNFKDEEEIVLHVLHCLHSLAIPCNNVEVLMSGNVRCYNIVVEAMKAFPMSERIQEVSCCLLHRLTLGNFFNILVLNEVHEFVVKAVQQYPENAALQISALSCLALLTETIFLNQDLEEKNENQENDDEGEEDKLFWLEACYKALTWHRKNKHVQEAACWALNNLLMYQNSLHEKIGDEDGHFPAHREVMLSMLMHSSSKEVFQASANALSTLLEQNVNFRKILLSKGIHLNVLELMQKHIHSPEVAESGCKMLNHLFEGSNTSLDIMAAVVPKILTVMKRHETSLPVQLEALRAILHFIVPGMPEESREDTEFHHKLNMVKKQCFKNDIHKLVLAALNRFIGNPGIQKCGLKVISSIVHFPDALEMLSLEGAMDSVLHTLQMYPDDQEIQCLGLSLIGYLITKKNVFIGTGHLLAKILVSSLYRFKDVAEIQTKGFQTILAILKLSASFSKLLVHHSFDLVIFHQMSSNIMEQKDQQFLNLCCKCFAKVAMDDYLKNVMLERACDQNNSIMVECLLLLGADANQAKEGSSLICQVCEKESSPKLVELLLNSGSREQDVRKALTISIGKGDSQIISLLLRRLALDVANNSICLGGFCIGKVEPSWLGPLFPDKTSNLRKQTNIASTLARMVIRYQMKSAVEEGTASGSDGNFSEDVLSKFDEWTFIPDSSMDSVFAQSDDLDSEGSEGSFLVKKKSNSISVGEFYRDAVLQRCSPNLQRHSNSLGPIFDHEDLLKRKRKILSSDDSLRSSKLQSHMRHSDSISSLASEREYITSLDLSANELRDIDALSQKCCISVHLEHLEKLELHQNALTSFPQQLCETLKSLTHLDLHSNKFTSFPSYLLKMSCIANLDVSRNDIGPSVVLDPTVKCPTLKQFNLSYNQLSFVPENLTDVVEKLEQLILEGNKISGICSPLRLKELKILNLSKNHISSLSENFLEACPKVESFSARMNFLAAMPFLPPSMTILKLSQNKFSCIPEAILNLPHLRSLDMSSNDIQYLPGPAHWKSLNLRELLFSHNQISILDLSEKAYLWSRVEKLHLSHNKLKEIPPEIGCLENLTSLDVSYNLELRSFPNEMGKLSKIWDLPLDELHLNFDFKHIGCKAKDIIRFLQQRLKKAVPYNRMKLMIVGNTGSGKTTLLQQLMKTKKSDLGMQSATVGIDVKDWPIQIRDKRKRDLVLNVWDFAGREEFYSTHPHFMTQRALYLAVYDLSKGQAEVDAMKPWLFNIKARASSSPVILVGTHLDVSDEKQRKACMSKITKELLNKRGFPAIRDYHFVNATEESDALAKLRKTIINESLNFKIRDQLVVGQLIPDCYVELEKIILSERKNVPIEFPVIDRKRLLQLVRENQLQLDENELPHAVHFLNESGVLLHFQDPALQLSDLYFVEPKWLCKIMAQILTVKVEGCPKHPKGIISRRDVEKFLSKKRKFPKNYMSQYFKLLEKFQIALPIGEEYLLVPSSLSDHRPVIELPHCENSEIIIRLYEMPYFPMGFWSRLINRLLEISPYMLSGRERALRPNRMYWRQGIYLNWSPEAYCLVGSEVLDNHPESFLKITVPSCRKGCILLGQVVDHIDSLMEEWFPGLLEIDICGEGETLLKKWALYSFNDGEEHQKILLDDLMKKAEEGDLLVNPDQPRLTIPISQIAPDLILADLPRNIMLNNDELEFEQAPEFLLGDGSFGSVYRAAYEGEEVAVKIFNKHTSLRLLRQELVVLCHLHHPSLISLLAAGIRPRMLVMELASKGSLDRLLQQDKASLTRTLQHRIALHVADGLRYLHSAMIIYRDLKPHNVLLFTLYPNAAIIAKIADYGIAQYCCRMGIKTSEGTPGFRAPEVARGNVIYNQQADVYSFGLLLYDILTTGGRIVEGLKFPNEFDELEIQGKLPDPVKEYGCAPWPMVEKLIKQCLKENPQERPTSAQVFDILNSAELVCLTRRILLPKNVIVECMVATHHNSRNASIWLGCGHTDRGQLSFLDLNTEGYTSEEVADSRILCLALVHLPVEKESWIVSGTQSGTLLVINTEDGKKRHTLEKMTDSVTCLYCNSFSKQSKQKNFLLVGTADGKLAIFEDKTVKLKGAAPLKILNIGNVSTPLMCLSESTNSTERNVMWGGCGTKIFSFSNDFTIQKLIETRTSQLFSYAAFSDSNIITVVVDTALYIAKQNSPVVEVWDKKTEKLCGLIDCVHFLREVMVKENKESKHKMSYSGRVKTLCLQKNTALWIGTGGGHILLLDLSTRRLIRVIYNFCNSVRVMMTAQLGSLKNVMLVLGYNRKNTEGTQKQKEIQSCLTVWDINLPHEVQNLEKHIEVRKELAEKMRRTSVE

CNc1nc(Nc2ccc(C(=O)N3CCN(C[C@H]4CC[C@H](CSC(C)(C)[C@H](NC(=O)C5(F)CC5)C(=O)N5C[C@@H](O)CC5C(=O)NCc5ccc(-c6scnc6C)cc5)CC4)CC3)cc2OC)ncc1Cl (stereo partly drawn) [Cis-XL01126, (2S,4S)-1-((R)-3-((((1r,4R)-4-((4-(4-((5-chloro-4-(methylamino)pyrimidin-2-yl)amino)-3-methoxybenzoyl)piperazin-1-yl)methyl)cyclohexyl)methyl)thio)-2-(1-fluorocyclopropane-1-carboxamido)-3-methylbutanoyl)-4-hydroxy-N-(4-(4-methylthiazol-5-yl)benzyl)pyrrolidine-2-carboxamide]
LRRK2 degradation in PBMC (in words) (LRRK2; 4 h treatment): cannot degrade LRRK2 | LRRK2 degradation in PBMC (in words) (LRRK2; 24 h treatment): degraded little LRRK2; also recorded: cannot degrade LRRK2 | LRRK2 degradation in PBMC (in words) (LRRK2; time course at 300 nM): cannot degrade LRRK2 | EC50 (Rab10 pThr73; 4 h treatment): > 3000 nM | EC50 (Rab10 pThr73; 24 h treatment): 705 nM | LRRK2 Ser935 and Rab10 Thr73 dephosphorylation in PBMC (in words) (Rab10 pThr73; time course at 300 nM): barely inhibits the phosphorylation; also recorded: induced little LRRK2 and Rab10 dephosphorylation

CNc1nc(Nc2ccc(C(=O)N3CCN(C[C@H]4CC[C@H](CSC(C)(C)[C@H](NC(=O)C5(F)CC5)C(=O)N5C[C@H](O)CC5C(=O)NCc5ccc(-c6scnc6C)cc5)CC4)CC3)cc2OC)ncc1Cl (stereo partly drawn) [XL01126, (2S,4R)-1-((R)-3-((((1R,4R)-4-((4-(4-((5-chloro-4-(methylamino)pyrimidin-2-yl)amino)-3-methoxybenzoyl)piperazin-1-yl)methyl)cyclohexyl)methyl)thio)-2-(1-fluorocyclopropane-1-carboxamido)-3-methylbutanoyl)-4-hydroxy-N-(4-(4-methylthiazol-5-yl)benzyl)pyrrolidine-2-carboxamide]
DC50 (LRRK2; 4 h treatment): 72 nM | DC50 (LRRK2; 24 h treatment): 17 nM | Dmax of LRRK2 degradation in PBMC (LRRK2; 24 h treatment): 80-90% | T1/2 of LRRK2 degradation in PBMC (LRRK2; time course at 300 nM): 2.4 h | half-life [1]: 3.65 min | half-life [2]: 5.24 h | solubility (Solubility; FeSSIF (fed state simulated intestinal fluid), fessif, Fed State Simulated Intestinal Fluid pH 5.8, read-out: Solubility in FeSSIF (pH 5.8)): 26.1 µM (≈ 26.6 µg/mL) | solubility (Solubility; aqueous buffer, PBS pH 7.4, read-out: Solubility in PBS (pH 7.4)): 0.55 µM (≈ 0.561 µg/mL) | Papp A→B (Caco-2 permeability; A − B): < 0.74 ×10⁻⁶ cm/s | Papp B→A (Caco-2 permeability; B − A): < 1.43 ×10⁻⁶ cm/s | penetration of Caco-2 mono-cell layer (in words) (Caco-2 mono-cell layer): can penetrant Caco-2 mono-cell layer; also recorded: can penetrate Caco-2 mono-cell layer | EC50 (Rab10 pThr73; 24 h treatment): 20 nM | T1/2 of Rab10 dephosphorylation in PBMC (Rab10 pThr73; time course at 300 nM): 0.38 h | T1/2 of LRRK2 dephosphorylation in PBMC (LRRK2 pSer935): 1 h
